Values of other authors in patent US20200338153A1, “ANAEROBIC ANTIOXIDANT COMPOSITION” (priority 2019, published 2020).

Settings: in vivo

For `CC(=O)N[C@@H](CS)C(=O)O` [NAC, N-acetylcysteine], the “fraction renally excreted by the body” value is listed as 30%.
